Test results: patent US4212797A, “Synthetic pentapeptide having opiate agonist activity” (Beckman Instruments, Inc., priority 1976, dated 1980)

What was measured:
opiate receptor sites = conditions: Hughes et al, Nature 258, 577-579 (1975); cited from earlier work
[1] = system: opiate receptor (stereospecific naloxone binding); assay: Inhibition of stereospecific naloxone binding (Pert and Snyder technique); conditions: for ID50, concentration required to inhibit 50% of stereospecific naloxone binding: sodium 100 mM
Procedure: B., and Snyder, S., Proceedings of the National Academy of Sciences, Vol. 70, pp. 2243-2247 (1973). The potency is measured as ID50, defined as the concentration required to inhibit 50% of stereospecific naloxone binding. The concentration of sodium was 100 mM. The effectiveness is inversely related to the ID50 value.

Structure (SMILES)	Opiate agonist potency, comparison in words (opiate receptor sites)	ID50, concentration required to inhibit 50% of stereospecific naloxone binding [1]	Potency relative to the more potent sequence of enkephalin ([1]; from ID50 values of Table 1)
CSCC[C@H](NC(=O)[C@H](Cc1ccccc1)NC(=O)CNC(=O)CNC(=O)[C@@H](N)Cc1ccc(O)cc1)C(=O)O [Enkephalin sequence one, H-Tyr-Gly-Gly-Phe-Met-OH]	more potent than sequence two	0.4	
CC(C)C[C@H](NC(=O)[C@H](Cc1ccccc1)NC(=O)CNC(=O)CNC(=O)[C@@H](N)Cc1ccc(O)cc1)C(=O)O [Enkephalin sequence two, H-Tyr-Gly-Gly-Phe-Leu-OH]		1.4	
CSCC[C@H](NC(=O)[C@H](Cc1ccccc1)NC(=O)CNC(=O)CNC(=O)[C@@H](N)Cc1ccc(O)cc1)C(N)=O [Subject Pentapeptide, H-Tyr-Gly-Gly-Phe-Met-NH2]		0.2	twice as potent as the more potent sequence of enkephalin
